Measurements reported in patent US7053113B2, “Mannich base prodrugs of 3-(pyrrol-2-yl-methylidene)-2-indolinone derivatives” (Sugen, Inc., priority 2000, dated 2006).

Legend:
[1] = Aqueous solubility of the prodrug compared with the parent compound; assay type: physicochemical; details: compared with parent compound (II)
[2] = Plasma Stability Test: conversion of prodrug to drug after IV administration to dogs; assay type: in vivo; details: IV at 2 mg/mL, HPLC analysis of blood plasma for 4 hours following dosing
Experimental: The prodrug (3Z)-3-[(3,5-dimethyl-1H-pyrrol-2-yl)-methylidene]-1-(1-pyrrolidinylmethyl)-1,3-dihydro-2H-indol-2-one was administered IV at 2 mg/mL to dogs. Levels of both prodrug and drug (3(Z)-3-[(3,5-dimethyl-1H-pyrrol-2-yl)-methylidene]-1,3-dihydro-2H-indol-2-one) were followed by HPLC analysis of blood plasma for 4 hours following dosing.

For `Cc1cc(C)c(/C=C2\C(=O)N(CN3CCCC3)c3ccccc32)[nH]1` [Example 2, (3Z)-3-[(3,5-dimethyl-1H-pyrrol-2-yl)-methylidene]-1-(1-pyrrolidinylmethyl)-1,3-dihydro-2H-indol-2-one], the “aqueous solubility over the parent compound” value [1] was “increased aqueous solubility” and the “prodrug converted into drug (area under the curve of drug concentration vs time)” value [2] was 80%.
